Results on 17 compounds are retold here after PubChem BioAssay AID330 (DTP/NCI, 2004).

“And” between values parts separate entries of the source, which are not always exact repeats. Identical values can stand only once. Inconclusive results and toxic doses are left out.

The subject of the assay is P388 leukemia ip, CD2F1 mice, survival T/C. Description: NCI In Vivo Anticancer Drug Screen. Data for tumor model P388 Leukemia (intraperitoneal) in CD2F1 (CDF1) mice. The conditions noted are these: endpoint: median survival time, higher = longer survival. A digest of the protocol:
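Mice carrying the transplanted tumor received test compound or vehicle. Survival was recorded in each group, and the value is the treated-group measurement divided by that of the vehicle-treated control group.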

Where [1] appears, read: dose: 50.0 mg/kg/injection, schedule: Q04DX003 (ip), vehicle: saline with Tween-80.
Where [2] appears, read: dose: 100.0 mg/kg/injection, schedule: Q04DX003 (ip), vehicle: saline with Tween-80.
The mark [3] stands for this setting: dose: 200.0 mg/kg/injection, schedule: Q04DX003 (ip), vehicle: saline with Tween-80.
Where [4] appears, read: dose: 50.0 mg/kg/injection, schedule: Q01DX009 (ip), vehicle: saline.
Where [5] appears, read: dose: 25.0 mg/kg/injection, schedule: Q04DX003 (ip), vehicle: saline with Tween-80.
[6] abbreviates: dose: 50.0 mg/kg/injection, schedule: Q01DX005 (ip), vehicle: saline with Tween-80.
Where [7] appears, read: dose: 100.0 mg/kg/injection, schedule: Q01DX005 (ip), vehicle: saline with Tween-80.
[8] abbreviates: dose: 200.0 mg/kg/injection, schedule: Q01DX005 (ip), vehicle: saline with Tween-80.
[9] abbreviates: dose: 60.0 mg/kg/injection, schedule: Q01DX005 (ip), vehicle: saline with Tween-80.
Setting [10] is: dose: 120.0 mg/kg/injection, schedule: Q01DX005 (ip), vehicle: saline with Tween-80.
Where [11] appears, read: dose: 240.0 mg/kg/injection, schedule: Q01DX005 (ip), vehicle: saline with Tween-80.

With `COc1ccc(-n2nnnc2N(C)c2ccccc2)cc1`, the T/C reads like this: under setting [1], 100 % of control; under setting [2], 94 % of control; under setting [3], 96 % of control.

As to `CCOC(=O)c1ccc2nc(/N=C/c3ccccc3Cl)sc2c1`, the T/C is 105 % of control under setting [4]; 108 % of control (dose: 100.0 mg/kg/injection, schedule: Q01DX009 (ip), vehicle: saline); 105 % of control (dose: 200.0 mg/kg/injection, schedule: Q01DX009 (ip), vehicle: saline).

`CCOC(=O)C(NC(=O)C1(O)C(O)C2(CC)C=CCN3CCC4(c5cc(C6(C(=O)OC)CC7CN(CCc8c6[nH]c6ccccc86)CC(O)(CC)C7)c(OC)cc5N(C)C14)C32)C(C)CC` (stereo not given): the T/C was 124 % of control (dose: 1.0 mg/kg/injection, schedule: Q01DX001 (ip), vehicle: saline); 155 % of control (dose: 2.0 mg/kg/injection, schedule: Q01DX001 (ip), vehicle: saline); 181 % of control (dose: 4.0 mg/kg/injection, schedule: Q01DX001 (ip), vehicle: saline); 172 % of control and 203 % of control (dose: 8.0 mg/kg/injection, schedule: Q01DX001 (ip), vehicle: saline); 191 % of control (dose: 16.0 mg/kg/injection, schedule: Q01DX001 (ip), vehicle: saline).

As to `Cc1cccc2c1NC(O)c1cccn1C2=O` (stereo not given), the T/C runs as follows: (dose: 0.1 mg/kg/injection, schedule: Q01DX005 (ip), vehicle: water) 98 % of control; (dose: 0.2 mg/kg/injection, schedule: Q01DX005 (ip), vehicle: water) 93 % of control; (dose: 0.4 mg/kg/injection, schedule: Q01DX005 (ip), vehicle: water) 93 % of control; (dose: 0.8 mg/kg/injection, schedule: Q01DX005 (ip), vehicle: water) 98 % of control; (dose: 1.6 mg/kg/injection, schedule: Q01DX005 (ip), vehicle: water) 93 % of control; (dose: 5.0 mg/kg/injection, schedule: Q01DX005 (ip), vehicle: distilled water + Tween-80) 103 % of control. Also, the T/C is 94 % of control (dose: 10.0 mg/kg/injection, schedule: Q01DX005 (ip), vehicle: distilled water + Tween-80); 98 % of control (dose: 20.0 mg/kg/injection, schedule: Q01DX005 (ip), vehicle: distilled water + Tween-80); 95 % of control (dose: 40.0 mg/kg/injection, schedule: Q01DX005 (ip), vehicle: distilled water + Tween-80); 94 % of control (dose: 80.0 mg/kg/injection, schedule: Q01DX005 (ip), vehicle: distilled water + Tween-80).

Consider `Nc1ccc2cc(Cl)ccc2c1`, for which, for the setting “dose: 16.5 mg/kg/injection, schedule: Q01DX009 (ip), vehicle: saline with Tween-80”, the T/C is 90 % of control.

For the compound `CC(CC(=O)c1ccccc1)=NCCCCN=C(C)CC(=O)c1ccccc1`, the T/C by setting is: (dose: 25.0 mg/kg/injection, schedule: Q04DX002 (ip), vehicle: saline with Tween-80) 104 % of control; under setting [5], 101 % of control; under setting [6], 91 % of control; (dose: 50.0 mg/kg/injection, schedule: Q04DX002 (ip), vehicle: saline with Tween-80) 96 % of control; under setting [1], 95 % of control; under setting [7], 95 % of control. Besides, the T/C (dose: 100.0 mg/kg/injection, schedule: Q04DX002 (ip), vehicle: saline with Tween-80) is 105 % of control; the T/C under setting [2] was 92 % of control; the T/C under setting [8] was 88 % of control; the T/C (dose: 200.0 mg/kg/injection, schedule: Q04DX002 (ip), vehicle: saline with Tween-80) is 98 % of control.

`COc1ccc(N=Nc2c(O)n(-c3ccc(Br)cc3)c(=S)n(-c3ccc(OC)cc3)c2=O)cc1`: the T/C runs as follows: under setting [2], 96 % of control; under setting [3], 87 % of control.

Regarding `O=S(=O)(c1cc(Cl)ccc1Cl)N(CCCCCN(S(=O)(=O)c1cc(Cl)ccc1Cl)S(=O)(=O)c1cc(Cl)ccc1Cl)S(=O)(=O)c1cc(Cl)ccc1Cl`, the T/C is, setting by setting: under setting [9], 99 % of control; under setting [10], 96 % of control; under setting [11], 95 % of control.

As to `O=C1NC(=O)C2(OC3c4ccccc4C=CN3C3=C2C(=O)CC3)C(=O)N1` (stereo not given), the T/C is, setting by setting: under setting [6], 97 % of control; under setting [7], 91 % of control; under setting [8], 91 % of control.

For the compound `CC12CC(OC(=O)[C@]1(C)O)[C@@H]([C@]1(O)CC[C@H]3[C@@H]4C[C@H]5O[C@]56[C@@H](O)C=CC(=O)[C@]6(C)[C@H]4CC[C@@]31C)C2` (stereo not given in full), the T/C runs as follows: (dose: 2.0 mg/kg/injection, schedule: Q01DX009 (ip), vehicle: saline + alcohol) 100 % of control; (dose: 4.0 mg/kg/injection, schedule: Q01DX005 (ip), vehicle: saline + alcohol) 108 % of control and 120 % of control; (dose: 4.0 mg/kg/injection, schedule: Q01DX009 (ip), vehicle: saline + alcohol) 105 % of control; (dose: 8.0 mg/kg/injection, schedule: Q01DX005 (ip), vehicle: saline + alcohol) 110 % of control and 111 % of control; (dose: 8.0 mg/kg/injection, schedule: Q01DX009 (ip), vehicle: saline + alcohol) 96 % of control; (dose: 16.0 mg/kg/injection, schedule: Q01DX005 (ip), vehicle: saline + alcohol) 109 % of control and 111 % of control. Moreover, the T/C (dose: 16.0 mg/kg/injection, schedule: Q01DX009 (ip), vehicle: saline + alcohol) is 96 % of control; the T/C (dose: 32.0 mg/kg/injection, schedule: Q01DX005 (ip), vehicle: saline + alcohol) is 107 % of control; the T/C (dose: 32.0 mg/kg/injection, schedule: Q01DX009 (ip), vehicle: saline + alcohol) is 87 % of control.

On to `COc1ccc2nc(C#N)sc2c1`, for which the T/C under setting [9] is 86 % of control, the T/C under setting [10] is 92 % of control and the T/C under setting [11] is 100 % of control.

Take `O=C(O)CCc1c[nH]c2ccc(N(CCCl)CCCl)cc12`: the T/C was 163 % of control (dose: 0.08 mg/kg/injection, schedule: Q04DX003 (ip), vehicle: saline with Tween-80); 100 % of control (dose: 0.15 mg/kg/injection, schedule: Q04DX003 (ip), vehicle: saline with Tween-80); 104 % of control (dose: 0.25 mg/kg/injection, schedule: Q01DX009 (ip), vehicle: saline); 177 % of control (dose: 0.33 mg/kg/injection, schedule: Q04DX003 (ip), vehicle: saline with Tween-80); 177 % of control (dose: 0.5 mg/kg/injection, schedule: Q04DX003 (ip), vehicle: saline with Tween-80); 104 % of control (dose: 0.75 mg/kg/injection, schedule: Q04DX003 (ip), vehicle: saline with Tween-80).

For the compound `O=C1CCC(N(Cc2ccccc2)Cc2ccccc2)C(=O)O1` (stereo not given), the T/C was 112 % of control (dose: 100.0 mg/kg/injection, schedule: Q04DX003 (ip), vehicle: Klucel (hydroxypropylcellulose) (HPC)); 109 % of control (dose: 200.0 mg/kg/injection, schedule: Q04DX003 (ip), vehicle: Klucel (hydroxypropylcellulose) (HPC)); 100 % of control (dose: 400.0 mg/kg/injection, schedule: Q04DX003 (ip), vehicle: Klucel (hydroxypropylcellulose) (HPC)).

As for `CCCCN(CCCC)C(=N)OC`, the T/C (dose: 12.5 mg/kg/injection, schedule: Q01DX005 (ip), vehicle: suspension in saline) is 100 % of control; the T/C (dose: 25.0 mg/kg/injection, schedule: Q01DX005 (ip), vehicle: suspension in saline) is 108 % of control; the T/C (dose: 50.0 mg/kg/injection, schedule: Q01DX005 (ip), vehicle: saline) was 99 % of control; the T/C (dose: 50.0 mg/kg/injection, schedule: Q01DX005 (ip), vehicle: suspension in saline) is 117 % of control.

For `C[N+](C)(CC(=O)Nc1ccc(Cl)c(Cl)c1)CC(=O)c1ccc(Cl)c(Cl)c1`, the T/C by setting is: under setting [5], 100 % of control; under setting [1], 100 % of control; under setting [2], 90 % of control.

As to `CCOc1cc(CC[N+](C)(C)C)cc2c1ccc1ccc(OC)c(OC)c12`, the T/C (dose: 6.25 mg/kg/injection, schedule: Q01DX005 (ip), vehicle: saline with Tween-80) was 99 % of control; the T/C (dose: 12.5 mg/kg/injection, schedule: Q01DX005 (ip), vehicle: saline with Tween-80) was 100 % of control; the T/C (dose: 25.0 mg/kg/injection, schedule: Q01DX005 (ip), vehicle: saline with Tween-80) is 96 % of control.

As to `CC(=O)Nc1ccc(S(=O)(=O)CC(N)=O)cc1`, the T/C was 105 % of control (dose: 12.5 mg/kg/injection, schedule: Q01DX009 (ip), vehicle: saline); 104 % of control (dose: 25.0 mg/kg/injection, schedule: Q01DX009 (ip), vehicle: saline); 107 % of control under setting [4]; 97 % of control (dose: 50.0 mg/kg/injection, schedule: Q01DX009 (ip), vehicle: suspension in saline).
